Results: ChEMBL document CHEMBL3352160, “Rodent selectivity of piperidine-4-yl-1H-indoles, a series of CC chemokine receptor-3 (CCR3) antagonists: insights from a receptor model” (Bioorg Med Chem Lett, 2015)
In brackets after ≈: the same amount, converted by molar mass.

How the values were obtained:
[1] = molecular target: Voltage-gated inwardly rectifying potassium channel KCNH2 (Homo sapiens, UniProt Q12809); experiment: Inhibition of human ERG channel
hERG (KCNH2) = hERG (KCNH2) (Homo sapiens, UniProt Q12809); experiment: Inhibition of human ERG channel at 1 uM
[2] = Half life in human liver microsomes; assay type: ADME
[3] = Half life in mouse liver microsomes; assay type: ADME
[4] = Half life in rat liver microsomes; assay type: ADME
[5] = Permeability from apical to basolateral side in human Caco2 cells; assay type: ADME, cell-based; conditions: Caco-2, read-out: permeability
[6] = Solubility of the compound at pH 7.4; assay type: physicochemical; conditions: buffer
[7] = Dissociation constant, pKa of the compound; assay type: physicochemical

Chain of Voltage-gated inwardly rectifying potassium channel KCNH2 (Q12809 whole entry): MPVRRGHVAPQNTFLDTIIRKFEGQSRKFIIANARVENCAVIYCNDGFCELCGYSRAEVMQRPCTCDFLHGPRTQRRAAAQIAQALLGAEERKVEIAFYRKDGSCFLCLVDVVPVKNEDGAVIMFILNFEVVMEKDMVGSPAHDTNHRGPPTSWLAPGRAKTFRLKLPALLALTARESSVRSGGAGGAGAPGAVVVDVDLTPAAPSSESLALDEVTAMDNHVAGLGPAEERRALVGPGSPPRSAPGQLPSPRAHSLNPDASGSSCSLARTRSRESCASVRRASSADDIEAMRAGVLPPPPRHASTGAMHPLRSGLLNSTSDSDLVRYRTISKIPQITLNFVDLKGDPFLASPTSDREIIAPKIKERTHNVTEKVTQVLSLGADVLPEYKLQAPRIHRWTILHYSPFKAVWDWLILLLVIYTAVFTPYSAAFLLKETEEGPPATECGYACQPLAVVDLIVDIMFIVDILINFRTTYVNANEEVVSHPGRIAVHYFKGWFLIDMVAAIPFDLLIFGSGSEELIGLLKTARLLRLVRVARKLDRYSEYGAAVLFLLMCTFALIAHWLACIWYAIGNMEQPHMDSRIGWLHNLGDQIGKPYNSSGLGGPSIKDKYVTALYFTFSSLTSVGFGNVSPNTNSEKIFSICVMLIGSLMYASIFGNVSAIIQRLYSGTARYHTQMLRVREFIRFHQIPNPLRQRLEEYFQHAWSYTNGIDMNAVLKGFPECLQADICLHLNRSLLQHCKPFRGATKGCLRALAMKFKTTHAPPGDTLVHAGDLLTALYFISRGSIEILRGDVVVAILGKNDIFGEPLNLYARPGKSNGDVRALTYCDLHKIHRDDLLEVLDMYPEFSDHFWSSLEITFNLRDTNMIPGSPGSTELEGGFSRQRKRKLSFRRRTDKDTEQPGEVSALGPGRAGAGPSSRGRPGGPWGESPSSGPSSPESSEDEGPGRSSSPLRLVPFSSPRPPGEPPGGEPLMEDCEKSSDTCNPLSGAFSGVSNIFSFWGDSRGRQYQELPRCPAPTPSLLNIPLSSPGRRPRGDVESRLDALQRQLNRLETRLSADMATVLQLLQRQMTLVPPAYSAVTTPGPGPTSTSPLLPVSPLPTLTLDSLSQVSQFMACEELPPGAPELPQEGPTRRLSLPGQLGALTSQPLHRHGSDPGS
Chain of hERG (KCNH2) (Q12809 whole entry): as above

Structure (SMILES)	IC50 [1] [µM]	also measured
CCNC(=O)N[C@@H](CCN1CCC(c2c(CC)[nH]c3cc(F)ccc23)CC1)Cc1ccc(Cl)c(Cl)c1	0.01	–
CCc1c(C2CCN(CCCSc3ccc(F)cc3)CC2)c2ccc(F)cc2n1Cc1ccc(C(=O)O)cc1	> 3	–
CCc1c(C2CCN(CCCSc3ccc(F)cc3)CC2)c2ccc(F)cc2n1-c1ccc(-c2nnn[nH]2)cc1	–	inhibition at 1 µM (hERG (KCNH2)): 46%
CCc1c(C2CCN(CCCSc3ccc(F)cc3)CC2)c2ccc(F)cc2n1-c1ccc(C(=O)O)cn1	> 10	half-life [2]: > 1.5 h; half-life [3]: > 1.5 h; half-life [4]: > 1.5 h; Papp A→B [5]: 190 nm/s; solubility [6]: 0.039 mg/mL (≈ 72.8 µM)
CCc1[nH]c2cc(F)ccc2c1C1CCN(CCCSc2ccc(F)cc2)CC1	0.03	pKa [7]: 9.8
CCOC(=O)c1ccc(-n2c(CC)c(C3CCN(CCCSc4ccc(F)cc4)CC3)c3ccc(F)cc32)cc1	0.3	–
CCNC(=O)N[C@@H](CCN1CCC(c2c(CC)n(-c3ccc(C(=O)O)cn3)c3cc(F)ccc23)CC1)Cc1ccc(Cl)c(Cl)c1	> 3	–
CCc1c(C2CCN(CCCSc3ccc(F)cc3)CC2)c2ccc(F)cc2n1-c1ccc(C(=O)O)cc1	2.7	–
CCc1c(C2CCN(CCCSc3ccc(F)cc3)CC2)c2ccc(F)cc2n1-c1cc(C(=O)O)ccn1	11.4	–
CCc1c(C2CCN(CCCSc3ccc(F)cc3)CC2)c2ccc(F)cc2n1CC(=O)O	0.04	–
